According to ChEMBL document CHEMBL1142495, “Novel D3 selective dopaminergics incorporating enyne units as nonaromatic catechol bioisosteres: synthesis, bioactivity, and mutagenesis studies” (J Med Chem, 2008):

Tests used:
[1] = target: D(3) dopamine receptor (Homo sapiens, UniProt P35462, D110E); experiment: biochemical
Description: Displacement of [3H]spiperone from human D3 D3.32E mutant receptor expressed in human HEK293 cells

[2] = target: T1, D(3) dopamine receptor (Homo sapiens, UniProt P35462); experiment: biochemical
Description: Displacement of [3H]spiperone from human wild type D3 receptor expressed in human HEK293 cells

[3] = target: T1, D(3) dopamine receptor
Description: Intrinsic activity at human D3 receptor expressed in CHO dhfr- cells by [3H]thymidine incorporation assay

[4] = target: D(3) dopamine receptor (Homo sapiens, UniProt P35462, F345W); experiment: biochemical
Sequence of D(3) dopamine receptor (Homo sapiens, UniProt P35462, F345W) (P35462 as listed by the source F345W): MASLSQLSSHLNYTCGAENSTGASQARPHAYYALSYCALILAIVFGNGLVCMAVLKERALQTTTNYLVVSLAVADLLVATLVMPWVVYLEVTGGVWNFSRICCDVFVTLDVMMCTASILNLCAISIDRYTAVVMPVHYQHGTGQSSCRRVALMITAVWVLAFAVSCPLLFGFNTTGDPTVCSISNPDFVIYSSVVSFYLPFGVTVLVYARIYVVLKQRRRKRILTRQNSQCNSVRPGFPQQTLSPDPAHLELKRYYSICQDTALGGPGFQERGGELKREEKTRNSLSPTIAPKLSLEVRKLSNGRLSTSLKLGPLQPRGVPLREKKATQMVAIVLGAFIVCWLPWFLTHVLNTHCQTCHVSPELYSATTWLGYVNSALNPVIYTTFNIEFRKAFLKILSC
Description: Displacement of [3H]spiperone from human D3 F6.51W mutant receptor expressed in human HEK293 cells

[5] = target: T1, D(3) dopamine receptor; remark: listed apart in the source
Description: Intrinsic activity at human D3 receptor expressed in CHO dhfr- cells assessed as inhibition of forskolin-induced cAMP release

[6] = Displacement of [3H]prazosin from adrenergic alpha1 receptor in pig cerebral cortex homogenate
[7] = target: D(1A) dopamine receptor (Sus scrofa, UniProt P50130); experiment: Displacement of [3H]SCH23390 from D1 receptor in pig striatal membrane; format: cell membranes, Striatum
Sequence of D(1A) dopamine receptor (P50130 whole entry): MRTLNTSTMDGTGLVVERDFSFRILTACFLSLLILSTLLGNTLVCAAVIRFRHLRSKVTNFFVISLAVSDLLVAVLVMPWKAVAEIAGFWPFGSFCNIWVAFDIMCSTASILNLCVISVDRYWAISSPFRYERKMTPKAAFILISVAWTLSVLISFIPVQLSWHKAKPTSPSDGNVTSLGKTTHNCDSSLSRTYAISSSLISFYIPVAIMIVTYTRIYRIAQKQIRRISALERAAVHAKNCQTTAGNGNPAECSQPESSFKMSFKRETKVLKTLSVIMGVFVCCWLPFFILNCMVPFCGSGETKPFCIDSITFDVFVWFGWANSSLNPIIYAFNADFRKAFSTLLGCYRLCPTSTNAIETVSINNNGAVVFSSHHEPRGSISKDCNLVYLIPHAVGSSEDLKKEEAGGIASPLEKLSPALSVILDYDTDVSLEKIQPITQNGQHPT

[8] = target: T2, D(4) dopamine receptor (Homo sapiens, UniProt P21917); experiment: Displacement of [3H]spiperone from human D4 receptor expressed in CHO cells; format: cell-based
T2 sequence (P21917 whole entry): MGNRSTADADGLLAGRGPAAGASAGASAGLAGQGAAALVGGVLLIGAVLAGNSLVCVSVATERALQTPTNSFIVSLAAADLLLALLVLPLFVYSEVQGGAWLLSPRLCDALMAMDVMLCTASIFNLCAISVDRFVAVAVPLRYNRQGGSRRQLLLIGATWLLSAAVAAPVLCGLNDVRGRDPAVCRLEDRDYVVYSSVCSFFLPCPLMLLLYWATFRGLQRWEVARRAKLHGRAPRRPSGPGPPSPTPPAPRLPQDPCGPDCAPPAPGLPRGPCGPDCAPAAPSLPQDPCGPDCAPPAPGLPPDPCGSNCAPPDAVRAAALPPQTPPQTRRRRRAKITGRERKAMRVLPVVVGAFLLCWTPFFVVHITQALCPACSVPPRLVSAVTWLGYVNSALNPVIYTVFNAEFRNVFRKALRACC

[9] = Displacement of [3H]WAY100635 from 5HT1A receptor in pig cerebral cortex homogenate
[10] = Displacement of [3H]ketanserin from 5HT2 receptor in pig cerebral cortex homogenate
[11] = target: T3, D(2) dopamine receptor (Homo sapiens, UniProt P14416); experiment: Displacement of [3H]spiperone from human D2short receptor expressed in CHO cells; format: cell-based
T3 sequence (P14416 whole entry): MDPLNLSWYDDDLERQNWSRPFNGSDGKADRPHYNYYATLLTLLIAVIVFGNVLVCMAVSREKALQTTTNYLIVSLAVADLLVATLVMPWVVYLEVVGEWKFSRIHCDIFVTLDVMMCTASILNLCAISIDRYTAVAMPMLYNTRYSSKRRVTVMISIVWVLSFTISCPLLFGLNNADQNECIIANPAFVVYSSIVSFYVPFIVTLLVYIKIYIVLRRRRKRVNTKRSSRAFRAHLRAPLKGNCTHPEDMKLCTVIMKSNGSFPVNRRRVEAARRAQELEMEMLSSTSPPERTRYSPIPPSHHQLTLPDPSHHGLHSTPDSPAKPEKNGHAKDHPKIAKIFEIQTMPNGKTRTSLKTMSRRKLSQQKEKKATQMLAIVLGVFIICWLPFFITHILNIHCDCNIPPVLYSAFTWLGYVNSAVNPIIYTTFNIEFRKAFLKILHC

[12] = target: T3, D(2) dopamine receptor; experiment: Displacement of [3H]spiperone from human D2long receptor expressed in CHO cells; format: cell-based
[13] = target: T1, D(3) dopamine receptor; experiment: biochemical; remark: listed apart in the source
Description: Displacement of [3H]spiperone from human D3 receptor expressed in CHO cells

T1 sequence (P35462 whole entry): as the sequence (P35462 as listed by the source F345W) above, with S9G, W345F counted along it
Sequence of D(3) dopamine receptor (Homo sapiens, UniProt P35462, D110E) (P35462 as listed by the source D110E): as the sequence (P35462 as listed by the source F345W) above, with D110E, W345F counted along it

Row | SMILES | Ki [1] [nM] | Ki [2] [nM] | EC50 [3] [nM] | Ki [4] [nM] | EC50 [5] [nM] | Ki [6] [nM] | Ki [7] [µM] | Ki [8] [nM] | Ki [9] [nM] | Ki [10] [nM] | Ki [11] [nM] | Ki [12] [µM] | Ki [13] [nM]
1 | C#CC1=CCC(N(CCC)CCC)CC1 (configuration not stated) | > 10000 | 190 | 4.4 | 5700 | 7.7 |  |  |  |  |  |  |  | 
2 | CCCNCCCCNC(=O)c1ccc(-c2ccccc2)cc1 |  |  |  |  |  | 2500 | 7.3 | 6100 | 9500 | 860 | > 100000 | 21 | 11000
3 | CCCN(CCCCNC(=O)c1ccc(-c2ccccc2)cc1)C1CC=C(C#C[Si](C)(C)C)CC1 (configuration not stated) |  |  |  |  |  | 2200 | 3.8 | 69 | 660 | 1400 | 360 | 0.22 | 4.4
4 | C#CC1=CCC(N(CCC)CCCCn2cc(-c3ccc(-c4ccccc4)cc3)nn2)CC1 (configuration not stated) | 1500 | 2.5 | 2.6 | 33 | 3.1 | 4400 | 9.5 | 190 | 2500 | 2700 | 170 | 0.61 | 1.3
5 | CC#CC1=CCC(N(CCC)CCCCn2cc(C)nn2)CC1 (configuration not stated) |  |  |  |  |  | 8700 | > 100 | 100 | 1800 | 15000 | 2100 | 4.1 | 280
6 | CCCN(CCC)CCCCNC(=O)c1ccc(-c2ccccc2)cc1 |  |  |  |  |  | 2400 | 6.8 | 1400 | 2800 | 790 | 8800 | 9.7 | 950
7 | CCCN(CCCCNC(=O)c1ccc(-c2ccccc2)cc1)C1CC=C(C#Cc2ccccc2)CC1 (configuration not stated) |  |  |  |  |  | 4600 | 13 | 3100 | 5800 | 8300 | 4700 | 5.5 | 300
8 | C#CC1=CCC(N(CCC)CCCCNC(=O)c2ccc(-c3ccccc3)cc2)CC1 (configuration not stated) |  |  |  |  |  | 510 | 2.9 | 4.3 | 230 | 460 |  |  | 
9 | CCCN(CCCCNC(=O)c1ccc(-c2ccccc2)cc1)C1CCCCC1 |  |  |  |  |  | 1100 | 4.6 | 670 | 1200 | 890 | 6300 | 4.7 | 140
10 | CCCN(CCCCn1cc(-c2ccc(-c3ccccc3)cc2)nn1)C1CC=C(C#C[Si](C)(C)C)CC1 (configuration not stated) |  |  |  |  |  | 1900 | 5.8 | 1800 | 6900 | 8300 | 670 | 0.69 | 13
11 | CCCN(CCCCn1cc(-c2ccc(-c3ccccc3)cc2)nn1)C1CC=C(C#Cc2ccccc2)CC1 (configuration not stated) |  |  |  |  |  | 900 | 1.7 | 1100 | 5900 | 5700 | 180 | 0.21 | 150
